Consider one molecule from PMC8147214, “Identification and Characterization of a Novel, Cold-Adapted D-Xylobiose- and D-Xylose-Releasing Endo-β-1,4-Xylanase from an Antarctic Soil Bacterium, Duganella sp. PAMC 27433” (Biomolecules, 2021).

For the assay, the system named is T1, rXylR.
T1 construct: gene XylR; mature GH10 xylanase, signal peptide (1-23) removed, N-terminal His6 tag (pET-28a(+)) kept; E. coli BL21; precursor 373 aa; mature N-terminus AEDTPEP by primer
Description: p-nitrophenol release, Michaelis-Menten non-linear regression. The class given is biochemical, Duganella sp. PAMC 27433. The settings on record: 50 mM sodium phosphate pH 5.5, 40 °C; substrate 1-10 mM. The source says: p-nitrophenol release, Michaelis-Menten non-linear regression on rXylR

Broadly, the Km is the substrate concentration at which the rate is half of its maximum. `O=[N+]([O-])c1ccc(O[C@@H]2O[C@H](CO)[C@@H](O[C@@H]3O[C@H](CO)[C@@H](O)[C@H](O)[C@H]3O)[C@H](O)[C@H]2O)cc1` [pNP-β-D-cellobioside]: the Km was found to be 1210 µM.
